Measurements reported in article PMC3562233 (PLoS ONE, 2013).

Legend:
V27A M2 [1] = target: T1, V27A M2 (Influenza A virus, UniProt P0DOF5, V27A); assay type: cell-based, influenza A virus (Udorn strain)
S31N M2 [2] = target: T2, S31N M2 (Influenza A virus, UniProt P0DOF5, S31N); assay type: cell-based, influenza A virus (Udorn strain)
S31N M2 [3] = target: T2, S31N M2; assay type: cell-based
V27A M2 [4] = target: T1, V27A M2; assay type: cell-based

Compound: NC12CC3CC(CC(C3)C1)C2 [Amantadine, reference compound]
- activity against V27A mutant in the yeast assay (V27A M2 [1]): did not increase the growth
- activity against S31N mutant in the yeast assay (S31N M2 [2]): did not increase the growth

Compound: O=[N+]([O-])c1ccc(CNC23CC4CC(CC(C4)C2)C3)cc1 [Compound 4, 1-adamantyl (4-nitrobenzyl)amine]
- % inhibition at 100 µM in TEVC S31N (S31N M2 [3]): 15.9 ± 0.2%
- % inhibition at 100 µM in TEVC V27A (V27A M2 [4]): 9.7 ± 0.3%

Compound: CC1(C)C2CCC1(C)C(N1CCNCC1)C2.Cl.Cl (stereo not drawn) [Compound 16, 1-(1,7,7-trimethylbicyclo[2.2.1]hept-2-yl)piperazine dihydrochloride]
- activity against S31N mutant in the yeast assay (S31N M2 [2]): inactive

Compound: NC1CCC2(CC1)C1CC3CC(C1)CC2C3 (stereo not drawn) [spiroadamantane amine]
- concentration that clearly increased growth of the V27A strain (V27A M2 [1]): ≥ 0.01 µM
